Data taken from patent US10561658B2, “Thieno- and pyrrolopyrimidine analogues as anticancer agents and methods of use thereof” (UNIVERSITY OF MARYLAND, BALTIMORE COUNTY, priority 2015, dated 2020).

How the values were obtained:
Cryptococcus neoformans = assay: Antifungal growth inhibition and MIC95, C. neoformans strains; format: cell-based
Experimental: (§1) Evaluation of antimicrobial activity in vitro. Compounds were tested against the following panel of bacteria and fungi purchased from the American Type Culture Collection (ATCC). Briefly, bacteria were grown to mid-log phase, diluted with fresh medium to an optical density at 600 nm (OD600) of 0.030-0.060 and then diluted again 1:10. This suspension (195 μL) was added to wells in a 96 well microtiter plate (Sarstedt) and 5 μL of compound dissolved in DMSO was added to give a final concentration of 100-0.1 μM at 2.5% DMSO by volume. A DMSO negative control and standard antibiotic positive controls were included in each plate. All compounds were tested in triplicate for each concentration. Plates were sealed with parafilm, placed in a Ziploc bag to prevent evaporation, and incubated at 30° C. (fungi) or 37° C. (bacteria) for 16-20 hours (48 hours for C. neoformans). The OD600 values for each well were determined with a plate reader (Biotek, EL800) and the data were standardized to the DMSO control wells after subtracting the background from blank medium. Initial single concentrations were tested at 100 μM and active compounds were further tested with at least nine concentrations for a full dose response. Dose response curves were generated using GraphPad Prism 5 software and used to determine the MIC95 concentrations (minimal concentration that inhibits 95% of growth). Compounds 1, 2, 5 and 19 were screened for growth inhibition activity against a panel of bacteria and fungi at a concentration of 100 as shown in Table 2. Compound 5 was included to test the importance of the C4-Cl substituent for activity across a broader range of biological systems.
(§2) Compounds 1 and 2 were further tested against the susceptible fungal strains to determine the MIC95 values.

[1] = tested on: Staphylococcus aureus subsp. aureus (MRSA) ATCC 43300; assay: Antimicrobial growth inhibition, S. aureus (MRSA); format: cell-based; details: Staphylococcus aureus (MRSA) ATCC 43300, 100 μM
Experimental: as §1

[2] = tested on: Escherichia coli ATCC 25922; assay: Antimicrobial growth inhibition, E. coli; format: cell-based; details: ATCC25922; Escherichia coli ATCC 25922, 100 μM
Experimental: as §1

[3] = tested on: Candida albicans ATCC 10231; assay: Antifungal growth inhibition and MIC95, C. albicans; format: cell-based; details: ATCC10231; Candida albicans ATCC 10231, 100 μM
Experimental: as §1, §2

[4] = tested on: Bacillus subtilis ATCC 6633; assay: Antimicrobial growth inhibition, B. subtilis; format: cell-based; details: ATCC6633; Bacillus subtilis ATCC 6633, 100 μM
Experimental: as §1

[5] = tested on: human cervix carcinoma HeLa cells; assay: Cell proliferation assay, HeLa; format: cell-based; details: 72 h proliferation, Coulter counter
Experimental: (§3) Cell proliferation assays for several of the compounds were performed on L1210, a mouse lymphocytic leukemia cell line; CCRF-CEM [39] an acute lymphoblastic leukemia cell line; and HeLa, a human cancer cell line derived from a human cervical adenocarcinoma. Murine Leukemia L1210, human lymphocytic CEM and human cervix carcinoma HeLa cells were obtained from the American Type Culture Collection (ATCC) (Rockville, Md.). All assays were performed in 96-well microtiter plates. To each well were added (5-7.5)×10^4 tumor cells and a given amount of the test compound. The cells were allowed to proliferate for 48 h (murine leukemia L1210 cells) or 72 h (human lymphocytic CEM and human cervix carcinoma HeLa cells) at 37° C. in a humidified CO2-controlled atmosphere. At the end of the incubation period, the cells were counted in a Coulter counter. The IC50 (50% inhibitory concentration) was defined as the concentration of the compound that inhibited cell proliferation by 50%. […] Presence of C7 iodine on the 2,4-dichloro pyrrolo[3,2-d] (compound 20) increases the anticancer activity by a factor of 5 when compared to compound 19. […] This alludes to a) importance of C7-I towards activity against cancer cell lines for the 2,4-O-benzylated analogues (15 and 16).

[6] = tested on: human lymphocytic CEM cells; assay: Cell proliferation assay, CEM; format: cell-based; details: CCRF-CEM, 72 h proliferation, Coulter counter
Experimental: as §3

[7] = tested on: murine leukemia L1210 cells; assay: Cell proliferation assay, L1210; format: cell-based; details: Mus musculus, 48 h proliferation, Coulter counter, read-out: IC50 L1210
Experimental: as §3

MDA-MB-231 cells [8] = assay: Cell cycle distribution (propidium iodide, flow cytometry), MDA-MB-231; format: cell-based, human; details: 1.75 μM
Experimental: Cell cycle distributions of MDA-MB-231 cells after 48 hours in the presence of equitoxic (IC80) doses of (a) compound 1 (15 μM) or (b) compound 2 (8 μM) analyzed by flow cytometry of fixed, propidium iodide-stained cells and compared to vehicle controls (DMSO). A minimum of 3000 cells were analyzed per cell population. Each bar represents the mean±SD across 4 independent cell samples.
(§4) Cell-cycle and apoptosis studies were conducted in MDA-MB-231 cells. Cell-cycle analysis of compound 19 at 15 μM concentration lead to arrest of 60% cells in G2/M stage. Similarly, at 1.75 μM concentration, compound 20 arrested 30% of cells in G2/M stage. […] To evaluate the possible mechanism for arrest of cell proliferation, cell-cycle distribution was measured using propidium iodide staining and flow cytometry. […] There are several possibilities that could account for this, including: (i) that cell lysis occurs rapidly following induction of apoptosis, preventing significant accumulation of annexin V-positive bodies, or (ii) that a distinct cell death pathway is triggered by compound 19.
Human metastatic breast cancer MDA-MB-231 cells were obtained from the American Type Culture Collection (ATCC) (Rockville, Md.) and maintained in Dulbecco's Modified Eagle's Medium (DMEM) containing 10% fetal bovine serum (FBS) without antibiotics at 37° C. in a humidified, CO2-controlled incubator. The cytotoxicity of compounds 1 and 2 was assessed by reduction of 3-(4, 5-dimethylthiazol-2-yl)-2,5-diphenyltetrazolium bromide (MTT). MDA-MB-231 cells were seeded in 96-well plates at 5×10^3 cells per well and treated with a range of drug concentrations. After 48 hours, cell viability was measured using the MTT Cell Proliferation Assay kit (ATCC) according to the manufacturer's instructions. Percent cell viability was plotted as a function of drug concentrations and analyzed using a sigmoidal dose response function with PRISM v3.03 software (GraphPad) to resolve drug concentrations yielding 50% cell death (IC50). The cell cycle distributions of MDA-MB-231 cells treated with compounds 1 or 2 were analyzed using propidium iodide staining and flow cytometry. 2×10^6 cells were seeded in 100 mm dishes and treated with compounds 1 or 2 at the IC80 values determined by cell viability assays or an equivalent volume of DMSO. 48 h following treatment the cells were collected, fixed, and stained with propidium iodide (Sigma Aldrich) immediately before analysis by flow cytometry.
As shown in Example 11, compounds 1 and 2 both induced apoptosis but involving a mechanism independent of cell cycle arrest. To test whether the toxicity of these agents for MDA-MB-231 cells proceeded via a similar pathway, their effects were monitored on cell cycle distributions using propidium iodide staining and flow cytometry. […]

[9] = tested on: L1210, CEM and HeLa cells; assay: Cell proliferation assays, comparison across cancer cell lines; format: cell-based; details: C7 iodine vs compound 19
Experimental: as §3

MDA-MB-231 cells [10] = assay: Apoptosis (annexin V), MDA-MB-231; format: cell-based, human; details: MDA-MB-231, tested concentration
Experimental: as §4

| Compound | inhibition at 100 µM (Cryptococcus neoformans; ATCC66031, Cryptococcus neoformans ATCC 66031, 100 μM) [%] | inhibition at 100 µM (Cryptococcus neoformans; C. neoformans B4546, 100 μM) [%] | inhibition at 100 µM (Cryptococcus neoformans; C. neoformans JEC20, 100 μM) [%] | inhibition at 100 µM (Cryptococcus neoformans; C. neoformans VANC-R265, 100 μM) [%] | inhibition at 100 µM [1] [%] | inhibition at 100 µM [2] [%] | inhibition at 100 µM [3] [%] | inhibition at 100 µM [4] [%] | IC50 [5] [µM] | IC50 [6] [µM] | IC50 [7] [µM] | cells arrested in G2/M stage (MDA-MB-231 cells [8]) [%] | increase of anticancer activity by a factor, compared to compound 19 [9] | annexin V-positive cells (MDA-MB-231 cells [10]) |
| --- | --- | --- | --- | --- | --- | --- | --- | --- | --- | --- | --- | --- | --- | --- |
| Clc1ncc2sccc2n1 [Compound 5] | < 43 | < 43 | < 43 | < 43 | < 43 | < 43 | < 43 | < 43 |  |  |  |  |  |  |
| c1ccc(COc2nc(OCc3ccccc3)c3[nH]ccc3n2)cc1 [Compound 15, 2,4-Bis-benzyloxy-5H-pyrrolo[3,2-d]pyrimidine] |  |  |  |  |  |  |  |  | 98 | 86 | 118 ± 8 |  |  |  |
| Ic1c[nH]c2c(OCc3ccccc3)nc(OCc3ccccc3)nc12 [Compound 16, 7-iodo-2,4-bis-benzyloxy-5H-pyrrolo[3,2-d]pyrimidine] |  |  |  |  |  |  |  |  | 17 | 17 | 21 ± 2 |  |  |  |
| Clc1nc(Cl)c2[nH]cc(I)c2n1 [Compound 20, 7-iodo-2,4-dichloro pyrrolo[3,2-d]pyrimidine] |  |  |  |  |  |  |  |  | 0.92 | 4.9 | 0.93 | 30 | 5 | robust accumulation |
